Holding throughout (test): Large panel kinase profiling
Holding throughout (type): biochemical
Settings in all cases: 1 μM test article, 1 mM ATP

One experiment has as its target T1, CDK3/E1 (Homo sapiens, UniProt Q00526).
T1 construct: AssayQuant Technologies, Inc. (ran the panel)
The method, boiled down: (§1)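 At 30° C., kinases turned over a CSox-Sensor peptide substrate with 1 mM ATP while 1 μM test article was present. Progress was followed by kinetic fluorescence readings.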

In a further experiment the target is T2, EIF2AK1/HRI (Homo sapiens, UniProt Q9BQI3).
T2 construct: AssayQuant Technologies, Inc. (service laboratory)
T2 sequence (Q9BQI3 whole entry): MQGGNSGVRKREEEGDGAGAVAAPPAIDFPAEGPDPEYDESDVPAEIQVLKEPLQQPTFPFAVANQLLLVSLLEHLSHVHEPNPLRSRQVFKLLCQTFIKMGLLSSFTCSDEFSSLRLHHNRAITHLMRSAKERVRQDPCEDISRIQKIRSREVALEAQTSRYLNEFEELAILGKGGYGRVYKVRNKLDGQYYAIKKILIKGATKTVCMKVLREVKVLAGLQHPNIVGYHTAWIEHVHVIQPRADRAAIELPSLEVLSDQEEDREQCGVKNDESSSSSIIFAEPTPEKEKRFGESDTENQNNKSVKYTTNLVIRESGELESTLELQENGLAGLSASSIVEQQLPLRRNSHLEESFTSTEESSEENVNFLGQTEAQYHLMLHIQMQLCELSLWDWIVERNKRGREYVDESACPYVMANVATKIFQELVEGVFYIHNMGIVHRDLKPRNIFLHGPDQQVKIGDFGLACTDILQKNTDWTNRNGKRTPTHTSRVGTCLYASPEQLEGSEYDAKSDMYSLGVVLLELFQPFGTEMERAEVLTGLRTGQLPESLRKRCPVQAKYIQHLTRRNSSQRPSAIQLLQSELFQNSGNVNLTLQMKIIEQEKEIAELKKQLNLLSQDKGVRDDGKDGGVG
The gist of the method: as §1

For the next experiment, the target named is EPHA4 (Homo sapiens, UniProt P54764). The gist of the method: as §1
Chain of EPHA4 (P54764 20-986, species assumed): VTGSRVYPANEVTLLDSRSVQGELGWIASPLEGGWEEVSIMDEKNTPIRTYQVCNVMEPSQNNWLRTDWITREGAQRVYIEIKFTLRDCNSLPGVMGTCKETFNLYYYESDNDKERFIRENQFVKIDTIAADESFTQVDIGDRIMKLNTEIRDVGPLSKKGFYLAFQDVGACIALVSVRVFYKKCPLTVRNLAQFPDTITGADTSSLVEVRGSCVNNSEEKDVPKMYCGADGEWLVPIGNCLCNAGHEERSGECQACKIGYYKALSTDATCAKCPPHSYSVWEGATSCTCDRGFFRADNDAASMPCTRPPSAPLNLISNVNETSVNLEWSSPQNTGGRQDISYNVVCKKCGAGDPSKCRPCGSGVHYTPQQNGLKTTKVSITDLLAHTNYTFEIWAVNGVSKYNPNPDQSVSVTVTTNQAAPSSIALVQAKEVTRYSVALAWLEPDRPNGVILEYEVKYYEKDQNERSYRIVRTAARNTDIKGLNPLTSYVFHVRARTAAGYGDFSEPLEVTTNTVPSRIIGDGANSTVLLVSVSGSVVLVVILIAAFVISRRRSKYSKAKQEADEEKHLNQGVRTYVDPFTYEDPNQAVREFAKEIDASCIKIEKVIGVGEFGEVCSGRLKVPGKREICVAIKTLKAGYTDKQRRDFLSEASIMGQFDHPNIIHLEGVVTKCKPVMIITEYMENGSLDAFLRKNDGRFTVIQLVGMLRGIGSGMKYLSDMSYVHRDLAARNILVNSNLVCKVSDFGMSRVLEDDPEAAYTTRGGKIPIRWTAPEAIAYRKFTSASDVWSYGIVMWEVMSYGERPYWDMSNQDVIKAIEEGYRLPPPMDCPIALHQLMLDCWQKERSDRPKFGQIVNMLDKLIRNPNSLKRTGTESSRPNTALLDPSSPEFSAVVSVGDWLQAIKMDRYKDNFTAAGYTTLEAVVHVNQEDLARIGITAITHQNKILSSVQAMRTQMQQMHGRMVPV
The target in the next experiment is T3, FRK (Homo sapiens, UniProt P42685).
T3 construct: AssayQuant Technologies, Inc. (service provider)
T3 sequence (P42685 whole entry, species assumed): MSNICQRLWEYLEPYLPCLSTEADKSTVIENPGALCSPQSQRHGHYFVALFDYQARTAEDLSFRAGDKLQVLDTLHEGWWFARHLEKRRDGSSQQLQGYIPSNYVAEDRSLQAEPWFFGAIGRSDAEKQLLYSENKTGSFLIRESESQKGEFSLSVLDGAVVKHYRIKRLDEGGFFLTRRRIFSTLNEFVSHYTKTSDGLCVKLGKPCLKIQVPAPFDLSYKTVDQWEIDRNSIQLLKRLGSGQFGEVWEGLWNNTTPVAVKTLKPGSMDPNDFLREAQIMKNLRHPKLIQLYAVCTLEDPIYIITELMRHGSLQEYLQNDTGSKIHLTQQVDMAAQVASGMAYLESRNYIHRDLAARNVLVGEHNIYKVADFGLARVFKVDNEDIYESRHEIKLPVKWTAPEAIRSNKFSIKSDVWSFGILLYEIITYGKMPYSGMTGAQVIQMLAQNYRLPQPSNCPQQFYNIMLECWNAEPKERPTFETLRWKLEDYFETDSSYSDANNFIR
The gist of the method: as §1

The next experiment concerns the target T4, IGF1R (Homo sapiens, UniProt P08069).
T4 construct: AssayQuant Technologies, Inc. (service provider)
The method, boiled down:
as §1

The next experiment deals with T5, MINK1 (Homo sapiens, UniProt Q8N4C8).
T5 construct: AssayQuant Technologies, Inc. (assay service)
The gist of the method:
as §1

For a further experiment, the target named is PIM2 (Homo sapiens, UniProt Q9P1W9). The gist of the method:
as §1

The next experiment addresses PIM3 (Homo sapiens, UniProt Q86V86). The gist of the method: as §1
A further experiment has as its target T6, PRKG1 (Homo sapiens, UniProt Q13976).
T6 sequence (Q13976 1-671): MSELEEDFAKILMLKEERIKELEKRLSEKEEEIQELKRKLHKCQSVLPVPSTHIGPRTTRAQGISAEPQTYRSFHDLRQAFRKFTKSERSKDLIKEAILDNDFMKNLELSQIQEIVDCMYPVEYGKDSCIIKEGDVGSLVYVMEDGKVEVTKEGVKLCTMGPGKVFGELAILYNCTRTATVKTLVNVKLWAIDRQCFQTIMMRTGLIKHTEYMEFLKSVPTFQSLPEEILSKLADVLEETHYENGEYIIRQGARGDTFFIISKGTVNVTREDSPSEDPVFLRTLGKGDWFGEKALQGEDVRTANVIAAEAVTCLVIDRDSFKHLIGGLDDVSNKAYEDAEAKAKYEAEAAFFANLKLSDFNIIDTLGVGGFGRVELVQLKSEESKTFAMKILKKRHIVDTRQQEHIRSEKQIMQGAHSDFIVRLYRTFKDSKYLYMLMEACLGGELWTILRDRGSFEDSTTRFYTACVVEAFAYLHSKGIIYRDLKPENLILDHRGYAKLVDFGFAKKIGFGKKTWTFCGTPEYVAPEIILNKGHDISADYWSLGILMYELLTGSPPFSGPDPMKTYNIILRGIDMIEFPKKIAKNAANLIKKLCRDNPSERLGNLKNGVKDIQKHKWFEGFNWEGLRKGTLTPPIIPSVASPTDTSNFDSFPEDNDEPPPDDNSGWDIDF
The method, boiled down: as §1

A further experiment deals with T7, SGK2 (Homo sapiens, UniProt Q9HBY8).
T7 construct: AssayQuant Technologies, Inc. (contract assay)
T7 sequence (Q9HBY8 1-367): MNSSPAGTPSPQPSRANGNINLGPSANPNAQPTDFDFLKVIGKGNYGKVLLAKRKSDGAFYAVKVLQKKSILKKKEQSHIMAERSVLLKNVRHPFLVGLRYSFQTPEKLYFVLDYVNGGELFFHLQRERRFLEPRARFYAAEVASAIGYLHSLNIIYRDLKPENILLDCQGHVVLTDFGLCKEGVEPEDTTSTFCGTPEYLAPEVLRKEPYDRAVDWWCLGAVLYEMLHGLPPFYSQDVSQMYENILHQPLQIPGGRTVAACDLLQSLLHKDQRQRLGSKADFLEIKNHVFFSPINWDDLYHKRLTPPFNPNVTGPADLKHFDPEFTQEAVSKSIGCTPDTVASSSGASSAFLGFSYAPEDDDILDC
The method, boiled down: as §1

Another experiment addresses T8, TYRO3 (Homo sapiens, UniProt Q06418).
T8 construct: AssayQuant Technologies, Inc. (contract laboratory that ran the panel)
T8 sequence (Q06418 41-890): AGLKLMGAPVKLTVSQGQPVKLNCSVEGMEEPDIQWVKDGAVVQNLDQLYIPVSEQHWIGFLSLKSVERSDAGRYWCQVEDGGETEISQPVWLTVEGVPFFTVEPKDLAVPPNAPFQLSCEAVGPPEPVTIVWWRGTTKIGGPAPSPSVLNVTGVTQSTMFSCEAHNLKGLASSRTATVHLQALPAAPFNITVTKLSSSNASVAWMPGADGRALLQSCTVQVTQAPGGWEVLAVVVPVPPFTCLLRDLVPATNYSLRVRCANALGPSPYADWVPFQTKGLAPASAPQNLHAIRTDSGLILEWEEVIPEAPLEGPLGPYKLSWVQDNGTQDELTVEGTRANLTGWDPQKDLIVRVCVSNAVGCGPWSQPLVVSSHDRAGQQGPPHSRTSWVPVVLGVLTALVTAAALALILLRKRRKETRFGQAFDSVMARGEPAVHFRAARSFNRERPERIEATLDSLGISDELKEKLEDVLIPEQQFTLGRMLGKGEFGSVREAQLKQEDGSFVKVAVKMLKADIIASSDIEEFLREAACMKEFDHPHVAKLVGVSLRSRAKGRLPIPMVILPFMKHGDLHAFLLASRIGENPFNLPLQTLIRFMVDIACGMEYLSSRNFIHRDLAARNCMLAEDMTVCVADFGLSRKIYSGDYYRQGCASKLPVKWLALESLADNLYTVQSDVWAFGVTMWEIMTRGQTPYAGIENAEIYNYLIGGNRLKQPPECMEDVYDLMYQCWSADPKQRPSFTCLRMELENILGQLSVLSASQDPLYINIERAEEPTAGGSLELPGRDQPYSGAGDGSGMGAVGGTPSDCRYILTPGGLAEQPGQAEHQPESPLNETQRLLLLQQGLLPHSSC
The gist of the method:
as §1

Chain of PIM2 (Q9P1W9 whole entry, species assumed): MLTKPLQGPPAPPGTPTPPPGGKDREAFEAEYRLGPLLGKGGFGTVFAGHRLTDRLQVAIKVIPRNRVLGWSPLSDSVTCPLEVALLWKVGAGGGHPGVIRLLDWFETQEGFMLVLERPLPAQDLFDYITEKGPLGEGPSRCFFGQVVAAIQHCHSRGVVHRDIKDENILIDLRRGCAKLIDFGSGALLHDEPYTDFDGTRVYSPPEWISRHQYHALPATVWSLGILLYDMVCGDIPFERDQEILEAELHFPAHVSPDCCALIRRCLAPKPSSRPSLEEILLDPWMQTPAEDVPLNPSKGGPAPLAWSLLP
T1 sequence (Q00526 whole entry, species assumed): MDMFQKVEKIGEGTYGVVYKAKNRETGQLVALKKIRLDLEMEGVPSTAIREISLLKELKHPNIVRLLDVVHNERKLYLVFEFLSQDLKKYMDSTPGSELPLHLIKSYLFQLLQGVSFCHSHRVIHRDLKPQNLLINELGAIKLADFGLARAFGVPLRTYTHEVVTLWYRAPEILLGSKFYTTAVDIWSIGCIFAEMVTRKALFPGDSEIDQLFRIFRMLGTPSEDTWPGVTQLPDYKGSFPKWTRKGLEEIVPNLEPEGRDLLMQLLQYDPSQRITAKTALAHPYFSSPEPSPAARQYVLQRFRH
T1 sequence (P24864 whole entry partner, species assumed): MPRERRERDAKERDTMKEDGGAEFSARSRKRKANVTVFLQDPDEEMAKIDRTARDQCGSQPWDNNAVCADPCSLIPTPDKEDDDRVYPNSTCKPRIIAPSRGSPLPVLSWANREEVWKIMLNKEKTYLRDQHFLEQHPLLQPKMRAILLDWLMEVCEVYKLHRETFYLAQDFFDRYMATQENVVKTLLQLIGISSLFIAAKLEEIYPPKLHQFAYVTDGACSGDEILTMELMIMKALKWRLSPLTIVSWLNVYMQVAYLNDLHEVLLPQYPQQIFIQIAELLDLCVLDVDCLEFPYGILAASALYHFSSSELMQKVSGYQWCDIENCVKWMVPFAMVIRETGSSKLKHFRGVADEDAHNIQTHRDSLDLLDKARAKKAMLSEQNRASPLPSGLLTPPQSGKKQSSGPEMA
T4 sequence (P08069 31-1367, species assumed): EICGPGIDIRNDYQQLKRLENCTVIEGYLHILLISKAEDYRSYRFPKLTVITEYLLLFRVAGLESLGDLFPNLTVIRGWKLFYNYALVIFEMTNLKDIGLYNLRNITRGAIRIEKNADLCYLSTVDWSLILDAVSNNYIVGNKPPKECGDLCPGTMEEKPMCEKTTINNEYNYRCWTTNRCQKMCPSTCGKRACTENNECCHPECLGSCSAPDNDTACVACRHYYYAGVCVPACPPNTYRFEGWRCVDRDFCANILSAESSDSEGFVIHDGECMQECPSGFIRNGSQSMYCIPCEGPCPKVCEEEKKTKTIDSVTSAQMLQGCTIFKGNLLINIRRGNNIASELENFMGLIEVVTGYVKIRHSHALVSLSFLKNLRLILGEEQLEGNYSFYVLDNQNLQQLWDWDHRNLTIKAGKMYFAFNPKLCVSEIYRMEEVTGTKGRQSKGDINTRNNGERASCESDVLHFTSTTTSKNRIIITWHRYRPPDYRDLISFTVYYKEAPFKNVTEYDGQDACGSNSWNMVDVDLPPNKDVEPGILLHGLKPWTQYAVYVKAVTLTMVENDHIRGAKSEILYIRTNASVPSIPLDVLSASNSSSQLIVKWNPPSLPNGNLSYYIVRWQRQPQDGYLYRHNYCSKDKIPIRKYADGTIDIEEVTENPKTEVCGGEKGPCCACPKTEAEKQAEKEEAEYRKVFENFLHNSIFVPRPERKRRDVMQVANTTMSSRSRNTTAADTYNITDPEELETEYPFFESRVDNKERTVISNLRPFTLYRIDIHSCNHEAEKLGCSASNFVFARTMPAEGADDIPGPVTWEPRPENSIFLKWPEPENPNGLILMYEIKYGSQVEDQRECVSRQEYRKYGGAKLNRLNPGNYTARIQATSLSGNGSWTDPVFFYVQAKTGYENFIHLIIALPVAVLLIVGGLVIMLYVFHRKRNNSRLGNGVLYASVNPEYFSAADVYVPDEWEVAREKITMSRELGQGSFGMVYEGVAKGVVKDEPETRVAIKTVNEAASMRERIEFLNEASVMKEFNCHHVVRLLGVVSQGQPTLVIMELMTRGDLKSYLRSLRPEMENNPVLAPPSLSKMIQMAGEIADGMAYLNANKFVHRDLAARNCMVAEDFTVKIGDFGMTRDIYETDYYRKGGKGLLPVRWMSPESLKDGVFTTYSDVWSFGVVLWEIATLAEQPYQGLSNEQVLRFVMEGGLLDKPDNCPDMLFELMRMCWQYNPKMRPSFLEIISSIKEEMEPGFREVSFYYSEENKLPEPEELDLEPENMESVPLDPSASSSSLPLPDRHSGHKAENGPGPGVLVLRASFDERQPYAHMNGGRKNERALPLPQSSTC

A word on the inhibition: it is the relative decrease from the control value, in per cent. For `C=CC(=O)N1CCCC(c2c(F)cc(C(N)=O)c3[nH]c4c(c23)CCCCC4)C1` (single isomer, unassigned) [Compound 5-6], the inhibition at 1 µM at CDK3/E1 was -15.3%; at EIF2AK1/HRI it was -6.1%; against EPHA4, 4.2%; on FRK, 4.2%; on IGF1R, -16.7%; against MINK1 it was -2.8%. Further, the inhibition at 1 µM was 2.5% against PIM2; -14.1% at PIM3; -2.8% against PRKG1; -46.7% against SGK2; 2.4% on TYRO3.

In the case of `C=CC(=O)N1CCC[C@@H](c2c(F)cc(C(N)=O)c3[nH]c4c(c23)CC2(CC4)CC2)C1` [Compound 6-2, (S)-5-(1-acryloylpiperidin-3-yl)-6-fluoro-1,2,4,9-tetrahydrospiro[carbazole-3,1′-cyclopropane]-8-carboxamide], the inhibition at 1 µM against CDK3/E1 is 13.7%; on EIF2AK1/HRI, -34.9%; at EPHA4, 4.9%; against FRK, -2.8%; against IGF1R, -11.6%; on MINK1 it was -22.7%. Further, the inhibition at 1 µM on PIM2 was 10.9%; against PIM3 it was -56.4%; at PRKG1 it was 0%; on SGK2, -26.2%; against TYRO3, 14.7%.

Turning to `C=CC(=O)N1CCC[C@@H](c2c(F)cc(C(N)=O)c3[nH]c4c(c23)CCC4)C1` [Compound 10-2, (S)-8-(1-acryloylpiperidin-3-yl)-7-fluoro-1,2,3,4-tetrahydrocyclo-penta[b]indole-5-carboxamide], the inhibition at 1 µM was -7.7% at CDK3/E1; -89.5% against EIF2AK1/HRI; -44.2% against EPHA4; -4.1% against FRK; -26.1% at IGF1R; -18.4% against MINK1. For the same compound, the inhibition at 1 µM at PIM2 is 3.3%; against PIM3, -16.8%; against PRKG1, -5.8%; at SGK2, -34.9%; on TYRO3, 10.1%.

Source of the values: patent US20220009920A1 (GB005, Inc., priority 2020, published 2022).
